The test system of one assay is MM.1S. Kind of assay: CCK-8 proliferation, MM.1S. It is filed as cell-based. The note with it: Homo sapiens, MM1.S; Table B10, compounds designed based on the IRAK4 inhibitors; MM.1S cells; read-out: Inhibitory activity (IC50, nM) on tumor cell proliferation, MM.1S. The procedure: (§1) The tumor cells used herein were cultured in a cell culture medium listed in table A1 at 37°C in an incubator with 5% CO2. Prior to experimentation, all cell lines used were correctly identified by STR profiling, and tested negative for mycoplasma contamination using a mycoplasma detection kit through routine screenings. Table A1. Tumor cells and cell culture medium used in the present disclosure
(§2) IC50 values of the compounds of the present disclosure (including the compounds in Table 1, and compounds of examples) were measured using the Meilun Cell Counting Kit-8 kit from Dalian Meilun Biotech Co., Ltd. Assay details are as follows: tumor cells were seeded in a 96-well plate at a density listed in Table A2. After 24h, 100 µL of the inoculated cells were treated with 0.5µL of the compounds of the present disclosure (including the compounds in Tables 1 and 2, and compounds of examples) at 10 different successively decreasing concentrations (starting at the highest concentration of 10µM; 5-fold serial dilutions). After the cells were treated with the compounds of the present disclosure for a period of time, the cell viability detection reagent was added to the culture medium for cell viability assessment according to the instructions provided with the CCK-8 kit. […] The growth inhibition of the compounds of the present disclosure on cells was plotted by Prism Graphpad software, and the IC50 values of the compounds of the present disclosure were calculated therefrom. […] Seeding protocol and treatment time for tumor cells

The target of another assay is T1, IRAK4 (Homo sapiens, UniProt Q9NWZ3).
T1 construct: evaluate the effects of the compounds of the present disclosure on the expression of target proteins in cells; endogenous in cells; host or cells: hPBMC
T1 sequence (Q9NWZ3 1-460): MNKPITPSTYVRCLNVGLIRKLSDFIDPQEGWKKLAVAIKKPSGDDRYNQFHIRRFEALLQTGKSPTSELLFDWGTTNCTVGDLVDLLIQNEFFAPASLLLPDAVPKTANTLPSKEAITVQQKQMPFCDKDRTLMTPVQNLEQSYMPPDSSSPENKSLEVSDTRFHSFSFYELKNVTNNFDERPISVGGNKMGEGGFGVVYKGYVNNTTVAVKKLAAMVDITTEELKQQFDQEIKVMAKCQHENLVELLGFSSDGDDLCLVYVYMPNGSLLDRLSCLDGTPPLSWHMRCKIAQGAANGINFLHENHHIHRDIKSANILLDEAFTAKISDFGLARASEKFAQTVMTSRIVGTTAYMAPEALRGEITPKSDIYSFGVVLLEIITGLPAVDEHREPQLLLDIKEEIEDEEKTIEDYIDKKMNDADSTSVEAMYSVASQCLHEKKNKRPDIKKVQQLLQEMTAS
Kind of assay: Western blot degradation of IRAK4 (hPBMC). Format: cell-based. The note with it: Table D1. In a few lines: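 After compound exposure, cells were harvested and lysates run on SDS-PAGE, transferred to nitrocellulose and probed with antibodies. Remaining target (%) was computed from band grayscale relative to an internal control protein and normalised; degradation (%) was 100% minus that.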
Background: In western blotting, separated proteins are transferred to a membrane and probed.

Another assay relates to SR. Kind of assay: CCK-8 proliferation, SR. The note with it: Homo sapiens; Table B10, compounds designed based on the IRAK4 inhibitors; SR cells; read-out: Inhibitory activity (IC50, nM) on tumor cell proliferation, SR. Format: cell-based, Human. The procedure: as §1, §2

On to `O=C1CCN(c2ccc(CN3CCC(n4cc(NC(=O)c5coc(-c6ccnc(NCC7CC7)c6)n5)c(C(F)F)n4)CC3)nc2)C(=O)N1` [GT-04958, 2-(2-((cyclopropylmethyl)amino)pyridin-4-yl)-N-(3-(difluoromethyl)-1-(1-((5-(2,4-dioxotetrahydropyrimidin-1(2H)-yl)pyridin-2-yl)methyl)piperidin-4-yl)-1H-pyrazol-4-yl)oxazole-4-carboxamide], for which, in the assay on MM.1S, the IC50 fell in the range of 100 to 500 nM. At IRAK4, the “Degradation of substrate protein IRAK4 (substrate protein remaining %)” value (“Degradation … (substrate protein remaining %)” for short) is recorded as “A (A is defined as 0% ≤ substrate protein remaining % ≤ 80%)”.

As to `O=C1CCN(c2cccc(CN3CCN(Cc4ccc5c(c4)nc(NC(=O)c4cccc(C(F)(F)F)c4)n5[C@H]4CC[C@@H](CO)CC4)CC3)c2)C(=O)N1` [GT-04977, N-(5-((4-(3-(2,4-dioxotetrahydropyrimidin-1(2H)-yl)benzyl)piperazin-1-yl)methyl)-1-((1s,4s)-4-(hydroxymethyl)cyclohexyl) -1H-benzo[d]imidazol-2-yl)-3-(trifluoromethyl)benzamide], the IC50 in the assay with MM.1S and in the assay with SR was 100 to 500 nM in each case. Further, on IRAK4, the “Degradation … (substrate protein remaining %)” value is “A (A is defined as 0% ≤ substrate protein remaining % ≤ 80%)”.

Turning to `O=C1CCN(c2ccc(CN3CCC(n4cc(NC(=O)c5coc(-c6ccnc(NCC7CC7)c6)n5)c(C(F)F)n4)CC3)cc2)C(=O)N1` [GT-04956, 2-(2-((cyclopropylmethyl)amino)pyridin-4-yl)-N-(3-(difluoromethyl)-1-(1-(4-(2,4-dioxotetrahydropyrimidin-1(2H)-yl)benzyl)piperidin-4-yl)-1H-pyrazol-4-yl)oxazole-4-carboxamide], in the assay with MM.1S, the IC50 fell in the range of 100 to 500 nM. The “Degradation … (substrate protein remaining %)” value on IRAK4 is “A (A is defined as 0% ≤ substrate protein remaining % ≤ 80%)”.

For `O=C1CCC(Nc2cccc(CN3CCN(Cc4ccc5c(c4)nc(NC(=O)c4cccc(C(F)(F)F)c4)n5C4CCC(CO)CC4)CC3)c2)C(=O)N1` (stereo not shown) [GT-04976, N-(5-((4-(3-((2,6-dioxopiperidin-3-yl)amino)benzyl)piperazin-1-yl)methyl)-1-((1s,4s)-4-(hydroxymethyl)cyclohexyl) -1H-benzo[d]imidazol-2-yl)-3-(trifluoromethyl)benzamide], the IC50 in the assay on MM.1S and in the assay on SR was 100 to 500 nM throughout. In addition, the “Degradation … (substrate protein remaining %)” value on IRAK4 is recorded as “A (A is defined as 0% ≤ substrate protein remaining % ≤ 80%)”.

The values are drawn from EP4678638A1, “NEW E3 UBIQUITIN LIGASE LIGAND, PROTEIN DEGRADATION AGENT AND USE THEREOF” (priority 2023, dated 2024).
